# Experimental data as given in ChEMBL document CHEMBL5236548, “Marine Natural Products: A Potential Source of Anti-hepatocellular Carcinoma Drugs” (J Med Chem, 2021).
# Key:
# HepG2 [1] = test: Antiproliferative activity against human HepG2 cells incubated for 72 hrs by MTT assay; type: functional, cell-based; settings: HepG2, 72 h
# HepG2 [2] = test: Cytotoxicity against human HepG2 cells incubated for 48 hrs by MTT assay; type: functional, cell-based; settings: HepG2, 48 h
# Bel-7402 [3] = test: Antitumor activity against human Bel-7402 cells xenografted in mouse assessed as reduction in tumor volume at 14 mg/kg, ip administered daily for 21 days by caliper method relative to control; type: functional; parameters: scale not given: the % may be the effect or the level left; settings: time 21 day
# H22 [4] = test: Antitumor activity against […] cells xenografted in mouse assessed as reduction in tumor volume at 5 mg/kg, ip measured after 21 days by caliper method relative to control; type: functional; parameters: scale not given: the % may be the effect or the level left; settings: time 21 day
# Bel-7402 [5] = test: Cytotoxicity against human Bel-7402 cells incubated for 72 hrs by SRB assay; type: functional, cell-based; settings: Bel-7402, 72 h
# Bel-7402 [6] = test: Antitumor activity against human Bel-7402 cells xenografted in mouse assessed as reduction in tumor volume at 7 mg/kg, ip administered daily for 21 days by caliper method relative to control; type: functional; parameters: scale not given: the % may be the effect or the level left; settings: time 21 day
# SMMC-7721 [7] = test: Cytotoxicity against human SMMC-7721 cells incubated for 72 hrs by SRB assay; type: functional, cell-based; settings: SMMC-7721, 72 h
# [8] = Half life in Kunming mouse at 15 to 30 mg/kg measured upto 240 mins; type: ADME, organism-based; settings: in vivo, dose 15-30 mg/kg
# Bel-7402 [9] = test: Antitumor activity against human Bel-7402 cells xenografted in mouse assessed as reduction in tumor volume at 28 mg/kg, ip administered daily for 21 days by caliper method relative to control; type: functional; parameters: scale not given: the % may be the effect or the level left; settings: time 21 day
# H22 [10] = test: Antitumor activity against […] cells xenografted in mouse assessed as reduction in tumor volume at 15 mg/kg, ip measured after 21 days by caliper method relative to control; type: functional; parameters: scale not given: the % may be the effect or the level left; settings: time 21 day
# H22 [11] = test: Antitumor activity against […] cells xenografted in mouse assessed as reduction in tumor volume at 45 mg/kg, ip measured after 21 days by caliper method relative to control; type: functional; parameters: scale not given: the % may be the effect or the level left; settings: time 21 day
# MDA-MB-435 = test: Cytotoxicity against human MDA-MB-435 cells incubated for 24 hrs by MTT assay; type: functional, cell-based; settings: MDA-MB-435, 24 h
# Bel-7402 [12] = test: Cytotoxicity against human 7402 hepatoma cells incubated for 24 hrs by MTT assay; type: functional, cell-based; settings: Bel-7402, 24 h
# HepG2 [13] = test: Antiproliferative activity against human HepG2 cells incubated for 72 hrs; type: functional, cell-based; settings: HepG2, 72 h
# SMMC-7721 [14] = test: Cytotoxicity against human SMMC-7721 cells by SRB assay; type: functional, cell-based
# HepG2 [15] = test: Cytotoxicity against human HepG2 cells by SRB assay; type: functional, cell-based
# PLC-PRF-5 = test: Cytotoxicity against human PLC-PRF-5 cells by SRB assay; type: functional, cell-based
# HepG2 [16] = test: Cytotoxicity against human HepG2 cells by MTT assay; type: functional, cell-based
# HA22T cell line = test: Cytotoxicity against human HA22T cells by MTT assay; type: functional, cell-based
# Hep 3B2 = test: Cytotoxicity against human Hep3B cells by MTT assay; type: functional, cell-based
# H22 [17] = test: Antitumor activity against […] cells xenografted in mouse assessed as reduction in tumor volume at 2 mg/kg, ip administered daily for 21 days by caliper method relative to control; type: functional; parameters: scale not given: the % may be the effect or the level left; settings: time 21 day
# Bel-7402 [18] = test: Antitumor activity against human Bel-7402 cells xenografted in mouse assessed as reduction in tumor volume at 2 mg/kg, ip administered daily for 21 days by caliper method relative to control; type: functional; parameters: scale not given: the % may be the effect or the level left; settings: time 21 day
# HepG2 [19] = test: Antiproliferative activity against doxorubicin resistant human HepG2 cells for 24 hrs in presence of c-phycocyanin by MTT assay; settings: HepG2, 24 h
# SMMC-7721 [20] = test: Antiproliferative activity against human SMMC-7721 cells measured after 48 hrs; type: functional, cell-based; settings: SMMC-7721, 48 h
# HepG2 [21] = test: Anticancer activity against human HepG2 cells by MTT assay; type: functional, cell-based
# HepG2 [22] = test: Antiproliferative activity against human HepG2 cells assessed as cell growth inhibition by SRB method; type: functional
# SK-HEP1 = test: Antiproliferative activity against human SK-HEP1 cells assessed as cell growth inhibition by SRB method; type: functional
# [23] = Antiproliferative activity against human HCC cells by MTT assay; type: functional, cell-based
# Huh-7 = test: Antiproliferative activity against human Huh-7 cells by MTT assay; type: functional, cell-based
# SNU-387 = test: Antiproliferative activity against human SNU-387 cells by MTT assay; type: functional, cell-based
# HepG2 [24] = test: Antiproliferative activity against human HepG2 cells by MTT assay; type: functional, cell-based
compound,measurement,setting,value
Cc1cc2nc([C@@H]3C4C5CCC([C@H](C)CCCC(C)C)[C@@]5(C)CCC4[C@@]4(C)CC[C@H](O)C[C@@]34O)[nH]c2cc1C (stereo partly specified),IC50,HepG2 [1],4.5 µM
C[C@]1(O)Cc2c(O)c3c(c(O)c2C[C@H]1O)C(=O)C1=C(SCCS1)C3=O,IC50,HepG2 [2],1.98 µM
Cc1cc(O)cc(O)c1OC1C(=O)Oc2c(C)cc(O)c3c2C1c1cc(O)cc(O)c1C3=O (stereo unspecified),Activity,Bel-7402 [3],51.2%
same,Activity,H22 [4],55%
same,IC50,Bel-7402 [5],< 6 µM
same,Activity,Bel-7402 [6],48.8%
same,IC50,SMMC-7721 [7],< 4 µM
same,half-life,[8],0.667 h
same,Activity,Bel-7402 [9],59.9%
same,Activity,H22 [10],62%
same,Activity,H22 [11],66%
COC(=O)N[C@H]1[C@@H](C)O[C@@H](O[C@H]2C/C=C(\C)[C@@H]3C=C[C@@H]4[C@@H](O[C@H]5C[C@@H](O[C@H]6C[C@@H](O)[C@@H](O[C@@H]7C[C@@H](O)[C@@H](OC)[C@H](C)O7)[C@H](C)O6)[C@@H](O)[C@H](C)O5)[C@H](C)C[C@H](C)[C@H]4[C@]3(C)/C(O)=C3\C(=O)O[C@]4(C[C@@H](C)C(CO)=C[C@H]4/C=C/2C)C3=O)C[C@]1(C)[N+](=O)[O-],IC50,MDA-MB-435,52.1 µM
same,IC50,Bel-7402 [12],0.506 µM
CC[C@H]1C=CCC[C@@]2(C[C@@H]3CC[C@]4(O)[C@H](C(=O)OCCCCCCCCCCCCCCCCC(=O)N(CCCN)C[C@@H](O)CCN)[C@]5(CCC[C@@H](C)O5)NC(=N2)N34)O1,IC50,HepG2 [13],2.11 µM
C[C@@H]1O[C@@H](O[C@H]2CC[C@H](O[C@@]3(C)CC(=O)[C@]4(O)C5=C(C=C[C@]4(O)C3)C(=O)c3c(ccc([C@H]4C[C@H]6O[C@H]7CC(=O)[C@H](C)O[C@@H]7O[C@@H]6[C@@H](C)O4)c3O)C5=O)O[C@H]2C)C=CC1=O,IC50,SMMC-7721 [14],0.033 µM
same,IC50,HepG2 [15],0.135 µM
same,IC50,PLC-PRF-5,0.244 µM
CCCCC/C=C\CC1(O)C=C(Br)C(=O)/C1=C\C=C\CCCC(=O)OC (stereo unspecified),IC50,HepG2 [16],0.59 µM
same,IC50,HA22T cell line,0.41 µM
same,IC50,Hep 3B2,0.47 µM
CC[C@H]1C=CCC[C@@]2(C[C@@H]3CCC4[C@H](C(=O)OCCCCCCCCCCCCCCCC(=O)N(CCCN)C[C@@H](O)CCN)[C@]5(CCC[C@@H](C)O5)NC(=N2)N43)O1 (stereo partly specified),IC50,HepG2 [13],2.66 µM
COC(=O)N[C@H]1[C@@H](C)O[C@@H](O[C@H]2C/C=C(\C)[C@@H]3C=C[C@@H]4[C@@H](O[C@H]5C[C@@H](O[C@H]6C[C@@H](O)[C@@H](O[C@@H]7C[C@@H](O)[C@@H](OC)[C@H](C)O7)[C@H](C)O6)[C@@H](O)[C@H](C)O5)[C@H](C)C[C@H](C)[C@H]4[C@]3(C)/C(O)=C3\C(=O)O[C@]4(C[C@@H](C)C(CO)=C[C@H]4/C=C/2C)C3=O)C[C@]1(C)N,IC50,MDA-MB-435,6.48 µM
same,IC50,Bel-7402 [12],625 µM
CCC(C)SC1=C(SC)C(=O)c2c(O)c3c(c(O)c2C1=O)C[C@](C)(O)[C@H](O)C3 (stereo partly specified),IC50,HepG2 [2],2.39 µM
COc1cccc2c1C(=O)c1c(O)c3c(c(O)c1C2=O)C[C@@](O)(C(=O)CO)C[C@@H]3O[C@H]1C[C@H](N)[C@H](O)[C@H](C)O1.Cl [DOXORUBICIN HYDROCHLORIDE],half-life,[8],23 h
same,Activity,H22 [17],51.9%
same,Activity,Bel-7402 [18],73.5%
COc1cccc2c1C(=O)c1c(O)c3c(c(O)c1C2=O)C[C@@](O)(C(=O)CO)C[C@@H]3O[C@H]1C[C@H](N)[C@H](O)[C@H](C)O1 [DOXORUBICIN],IC50,HepG2 [19],10 µM
same,IC50,SMMC-7721 [14],0.706 µM
same,IC50,HepG2 [15],0.919 µM
same,IC50,PLC-PRF-5,1.03 µM
COc1cccc2c1C(=O)c1c(O)c3c(c(O)c1C2=O)C[C@@](O)(C(=O)CO)C[C@@H]3O[C@H]1C[C@H](N)[C@@H](O)[C@H](C)O1 [EPIRUBICIN],IC50,HepG2 [2],0.96 µM
O=c1[nH]cc(F)c(=O)[nH]1 [FLUOROURACIL],IC50,SMMC-7721 [20],20 µM
CO[C@@]12[C@H](COC(N)=O)C3=C(C(=O)C(C)=C(N)C3=O)N1C[C@@H]1N[C@@H]12 [MITOMYCIN],IC50,HepG2 [21],0.13 µM
C/C=C\C[C@@H](C/C=C\NC(=O)[C@@H](NC(=O)\C=C/C=C\C(C)=C\[C@H](C)[C@@H]1CC=C(OC)C(=O)O1)C(C)(C)C)OC(N)=O [PLOCABULIN],GI50,HepG2 [22],0.00276 µM
same,GI50,SK-HEP1,0.000179 µM
CNC(=O)c1cc(Oc2ccc(NC(=O)Nc3ccc(Cl)c(C(F)(F)F)c3)cc2)ccn1 [SORAFENIB],IC50,[23],21.2 µM
same,IC50,Huh-7,4.25 µM
same,IC50,SNU-387,259 µM
same,IC50,HepG2 [24],6.4 µM
CC[C@]1(O)C[C@@H]2CN(CCc3c([nH]c4ccccc34)[C@@](C(=O)OC)(c3cc4c(cc3OC)N(C)[C@H]3[C@@](O)(C(=O)OC)[C@H](OC(C)=O)[C@]5(CC)C=CCN6CC[C@]43[C@@H]65)C2)C1 [VINBLASTINE],GI50,SK-HEP1,0.0378 µM
